Measured values: patent US4438201A, “Amidohydrolase having ability to depantothenylate an antibiotic” (Sanraku-Ocean Co., Ltd., priority 1981, dated 1984)

System: amidohydrolase (enzyme of this invention)
Experiment: Experiment C: acyl transfer from acyl-CoA to 6-APA
Format: biochemical, Streptomyces fulvoviridis A933
Conditions: acetyl-CoA or glutaryl-CoA; 37° C., 3 hours
Method: 0.2 M Potassium phosphate buffer, pH 7.4 (10 μl), 10 μl of 6-aminopenicillanic acid (6-APA) (500 μg/ml), 20 μl of acyl-CoA (5 μmoles/ml) and 10 μl of the enzyme preparation from Example 1 were mixed and incubated at 37° C. for 3 hours. The products were analyzed by HVPE in the same way as in Example 2, employing acetic acid buffer, pH 4.5 Acetyl-CoA and glutaryl-CoA were used as acyl-CoA.
The controls were the same reaction mixtures minus enzyme solution and acyl-CoA respectively.

CC1(C)S[C@@H]2[C@H](N)C(=O)N2[C@H]1C(=O)O [6-APA, 6-aminopenicillanic acid]
Acyl transfer from acyl-CoA to the amino group: converted to the corresponding acyl-6-APA
